In PubChem BioAssay AID1549 (Sanford-Burnham Center for Chemical Genomics, 2009):
Activity calls are given as the source filed them. The rule behind the calls is not given here.

Target: Influenza A virus M2 proton channel (A/TW/4845/1999 H1N1)
Assay: M2 proton channel binding, NMR based, influenza A virus H1N1 strain (AID 1549)
Conditions: NMR binding screen, M2 protein

Row | SMILES | Kd
1 | O=C(O)c1ccc(N2CCCCC2)cc1 | > 4 mM (inactive)
2 | COC(=O)c1cccc(C(F)(F)F)c1 | > 4 mM (inactive)
3 | c1ccc2[nH]c(NCCN3CCOCC3)nc2c1 | > 4 mM (inactive)
4 | NCc1cccc2c1OCCO2 | > 4 mM (inactive)
5 | N#Cc1c[nH]n2c(=O)cc(Cc3ccccc3)nc12 | > 4 mM (inactive)
6 | NC(=O)c1c[nH]c2ccccc12 | > 4 mM (inactive)
7 | CCCNC(CC(=O)Nc1cccnc1)C(=O)O (stereo not given) | > 4 mM (inactive)
8 | COc1cc(O)c2c(=O)c(O)c(-c3ccc(O)c(O)c3)oc2c1 | > 4 mM (inactive)
9 | CC1Cc2nc(SCC(N)=O)n(C)c(=O)c2S1 (stereo not given) | > 4 mM (inactive)
10 | COCC(=O)N1CCCc2ccccc21 | > 4 mM (inactive)
11 | c1ccc2c(c1)CN1CCCC1=N2 | > 4 mM (inactive)
12 | CC(=O)O[C@@H]1CC2C(C)(C)C(=O)C=C[C@]2(C)C2CC[C@@]3(C)[C@H](c4ccoc4)OC(=O)[C@H]4O[C@]43[C@@]21C (stereo not given in full) | > 4 mM (inactive)
13 | CCOc1ccc(C(=O)c2ccncc2)cc1 | > 4 mM (inactive)
14 | NCc1cccc2c1OCCCO2 | > 4 mM (inactive)
15 | Cc1noc(C)c1C(=O)N1CCC(Cc2ccccc2)CC1 | > 4 mM (inactive)
16 | Cn1c(=O)n(CC(=O)Nc2cccnc2)c2ccccc21 | > 4 mM (inactive)
17 | O=C(O)CCCCC1SCC2NC(=O)NC21 (stereo not given) | > 4 mM (inactive)
18 | CCOc1ccc2ccccc2c1C(=O)N1CCOCC1 | > 4 mM (inactive)
19 | O=C(c1cccs1)N1CCCc2ccccc21 | > 4 mM (inactive)
20 | O=C(CN1C(=O)c2cccc3cccc(c23)C1=O)NO | > 4 mM (inactive)
21 | Oc1cc(O)c2c(c1)O[C@H](c1ccc(O)c(O)c1)[C@@H](O)C2 | > 4 mM (inactive)
22 | S=C(c1ccc(N2CCOCC2)cc1)N1CCCCC1 | > 4 mM (inactive)
23 | O=C(O)C1Cc2ccccc2N1 (stereo not given) | > 4 mM (inactive)

Row | SMILES | Kd
24 | Cc1cc(C)c(C#N)c(N2CCCC2)n1 | > 4 mM (inactive)
25 | O=CN1CCN(C(=O)c2ccc(F)cc2)CC1 | > 4 mM (inactive)
26 | O=C(O)c1cccc(CSc2ncccn2)c1 | > 4 mM (inactive)
27 | CC(=O)NCc1nc2ccccc2[nH]1 | > 4 mM (inactive)
28 | Nc1cc(=O)[nH]c(=S)n1CCc1ccccc1 | > 4 mM (inactive)
29 | CC1(C)C(=O)C=C[C@@]2(C)C1C=C[C@]1(C)C2CC[C@@]2(C)[C@H](c3ccoc3)OC(=O)C3OC321 (stereo not given in full) | > 4 mM (inactive)
30 | CCc1c(C)[nH]c(=S)c(C(N)=O)c1C | > 4 mM (inactive)
31 | CC(=O)Nc1cccc(N(C)S(C)(=O)=O)c1 | > 4 mM (inactive)
32 | Cc1occc1C(=O)Nc1ccc2c(c1)CCC2 | > 4 mM (inactive)
33 | O=C1CC2OCC=C3CN4CC[C@]56c7ccccc7N1C5[C@H]2[C@H]3CC46 (stereo not given in full) | > 4 mM (inactive)
34 | Cn1nnc2cc(C(=O)NCc3ccco3)ccc21 | > 4 mM (inactive)
35 | CC(=O)N1N=C(N)SC1c1cccnc1 (stereo not given) | > 4 mM (inactive)
36 | COc1ccc(NC(=O)C2CC(=O)N=C(N)S2)cc1 (stereo not given) | > 4 mM (inactive)
37 | Cc1ccc2cccc(OC(=O)N3CCCC3)c2n1 | > 4 mM (inactive)
38 | CCC(C)C(=O)O[C@@H]1C[C@@]2(C)[C@H](c3ccoc3)OC(=O)CC23OC2(C)O[C@]14[C@]1(C)[C@@H](CC(=O)OC)C5(C)CC1(O)[C@](O)(C5OC(=O)C1(C)OC1C)[C@@H](OC(C)=O)[C@]34O2 (stereo not given in full) | > 4 mM (inactive)
39 | O=C1C2C3C=CC(C3)C2C(=O)N1c1nccs1 (stereo not given) | > 4 mM (inactive)
40 | CC(=O)c1c(O)n(C)c(=S)n(C)c1=O | > 4 mM (inactive)
41 | CC(=O)OCc1cc(=O)n(C)c(=O)n1C | > 4 mM (inactive)
42 | Cn1ncc(NC(=O)Nc2ccc(F)cc2F)c1C(N)=O | > 4 mM (inactive)
43 | O=C(O)CCC(=O)NCc1cccnc1 | > 4 mM (inactive)
44 | O=C1CSC(=Nc2ccccc2[N+](=O)[O-])N1 | > 4 mM (inactive)
45 | Cc1ccc(NC(=O)CN2C(=O)CSC2=O)cc1 | > 4 mM (inactive)
46 | Nc1ncnc2c1ncn2[C@@H]1O[C@H](CO)[C@@H](O)[C@H]1O | > 4 mM (inactive)

Row | SMILES | Kd
47 | Nc1n[nH]c(=S)n1-c1ccccc1 | > 4 mM (inactive)
48 | COC(=O)c1cc(-c2c[nH]c3ccccc23)n[nH]1 | > 4 mM (inactive)
49 | Cc1c(C)c2c(c(C)c1O)CCC(C)(CCCC(C)CCCC(C)CCCC(C)C)O2 (stereo not given) | > 4 mM (inactive)
50 | CN1CCN(S(=O)(=O)c2ccc(=O)[nH]c2)CC1 | > 4 mM (inactive)
51 | Cc1nnc(SCc2ccc(F)cc2)s1 | > 4 mM (inactive)
52 | O=C(c1ccc(Cl)s1)N1CCOCC1 | > 4 mM (inactive)
53 | CSc1ccc(S(=O)(=O)N2CCCC2)cc1 | > 4 mM (inactive)
54 | Cc1oc(-c2ccccc2)cc1C(N)=O | > 4 mM (inactive)
55 | O=C(O)c1cccc2c1OCCCO2 | > 4 mM (inactive)
56 | Nc1nc(-c2ccccc2)cc(=O)[nH]1 | > 4 mM (inactive)
57 | COCC(=O)Nc1ccc(C)c(Cl)c1 | > 4 mM (inactive)
58 | CCc1nnsc1C(=O)Nc1nccs1 | > 4 mM (inactive)
59 | O=c1cnnc(NCc2ccc(F)cc2)[nH]1 | > 4 mM (inactive)
60 | C[C@H]1O[C@@H](O[C@H]2[C@@H](O)C[C@H](O[C@H]3[C@@H](O)C[C@H](O[C@H]4CC[C@]5(C)C6CC[C@]7(C)[C@@H](C8=CC(=O)OC8)CC[C@]7(O)C6CC[C@@H]5C4)O[C@@H]3C)O[C@@H]2C)C[C@H](O)[C@@H]1O (stereo not given in full) | > 4 mM (inactive)
61 | CC1(C)N=C2C(=N)C=CC=C2N1O | > 4 mM (inactive)
62 | COC(=O)c1ccc2ncccc2c1 | > 4 mM (inactive)
63 | COc1ccc(-c2cc(=O)c3ccccc3o2)cc1 | > 4 mM (inactive)
64 | O=C(CSc1ccc(Cl)cc1)N1CCOCC1 | > 4 mM (inactive)
65 | O=C(O)C1CSC(c2ccccc2)N1 (stereo not given) | > 4 mM (inactive)
66 | CC1=C(/C=C/C(C)=C/C=C/C(C)=C/C=C/C=C(C)/C=C/C=C(C)/C=C/C(=O)[C@]2(C)C[C@@H](O)CC2(C)C)C(C)(C)C[C@H](O)C1 | > 4 mM (inactive)
67 | Cc1cccn2cc(CNc3ccccc3)nc12 | > 4 mM (inactive)
68 | COc1cc([C@H]2Oc3cc([C@H]4Oc5cc(O)cc(O)c5C(=O)[C@@H]4O)ccc3O[C@@H]2CO)ccc1O | > 4 mM (inactive)
69 | CC(=O)NC(c1ccccc1)c1cccnc1 (stereo not given) | > 4 mM (inactive)

Row | SMILES | Kd
70 | CN(C)S(=O)(=O)c1cccc(N)c1 | > 4 mM (inactive)
71 | NC(N)=NOCC[C@H](N)C(=O)O | > 4 mM (inactive)
72 | Cc1nn2c(-c3ccncc3)nnc2c2ccccc12 | > 4 mM (inactive)
73 | CN(C)C(=O)Nc1ccc(F)cc1F | > 4 mM (inactive)
74 | NCc1csc(-c2cccs2)n1 | > 4 mM (inactive)
75 | O=C(O)c1csc(-c2cccnc2)n1 | > 4 mM (inactive)
76 | Cn1c(=O)c2c(ncn2CCNC2=NCCC2)n(C)c1=O | > 4 mM (inactive)
77 | O=C(O)C1CSC(c2ccco2)N1 (stereo not given) | > 4 mM (inactive)
78 | CCc1ccc(C(=O)N2CCCC2)s1 | > 4 mM (inactive)
79 | Cn1c(SCC(N)=O)nnc1-c1cccnc1 | > 4 mM (inactive)
80 | COc1cccc(NC(=O)c2ocnc2C)c1 | > 4 mM (inactive)
81 | COc1cc(NC(=O)c2ccccc2)c(C)cc1N | > 4 mM (inactive)
82 | O=C1CC(=O)N(Cc2ccco2)C(=S)N1 | > 4 mM (inactive)
83 | COc1cccc(N2CCN(C(=O)c3cccnc3)CC2)c1 | > 4 mM (inactive)
84 | Cc1ccc(N2NC(=O)CC2=O)cc1C | > 4 mM (inactive)
85 | CC(C)C1COc2cc3oc(=O)ccc3cc2O1 (stereo not given) | > 4 mM (inactive)
86 | O=c1[nH]c(=O)c2[nH]cnc2[nH]1 | > 4 mM (inactive)
87 | COc1cnn(-c2ccccc2)c(=O)c1N(C)C | > 4 mM (inactive)
88 | c1ccc2c(c1)[nH]c1cnccc12 | > 4 mM (inactive)
89 | C[C@@H]1O[C@@H](O[C@H]2[C@@H](Oc3cc(O)c4c(c3)O[C@H](c3ccc(O)cc3)CC4=O)O[C@H](CO)[C@@H](O)[C@@H]2O)[C@H](O)[C@H](O)[C@H]1O | > 4 mM (inactive)
90 | Cc1cc(=O)c2ccccc2n1CC(N)=O | > 4 mM (inactive)
91 | O=C(CCc1ccc(O)cc1)c1c(O)cc(O)cc1O[C@@H]1O[C@H](CO)[C@@H](O)[C@H](O)[C@H]1O | > 4 mM (inactive)
92 | NCc1ccccc1N1CCCCC1 | > 4 mM (inactive)

Row | SMILES | Kd
93 | O=C(c1cccnc1Cl)N1CCOCC1 | > 4 mM (inactive)
94 | CNC(=S)Nc1ncn(Cc2cccc(F)c2)n1 | > 4 mM (inactive)
95 | CC(=O)Nc1ccc(NC2SC(=O)NC2=O)cc1 (stereo not given) | > 4 mM (inactive)
96 | CC1(C)N=C2C(=[N+]1[O-])CCC/C2=N\O | > 4 mM (inactive)
97 | O=C(NCc1cccs1)c1nn2cccnc2c1Cl | > 4 mM (inactive)
98 | C=CCSCC=C | > 4 mM (inactive)
99 | O=C1N=C(N2CCOCC2)S/C1=C\c1cccnc1 | > 4 mM (inactive)
100 | Cc1nc(-c2ccccc2)sc1CO | > 4 mM (inactive)
101 | NCCCCN=C(N)N | > 4 mM (inactive)
102 | Cc1c(F)cccc1NS(=O)(=O)c1ccccc1C#N | > 4 mM (inactive)
103 | COc1ccc(-c2coc3c(O)c(OC)ccc3c2=O)cc1 | > 4 mM (inactive)
104 | Cc1ccc(-c2cc(C(=O)N3CCCC3)no2)cc1 | > 4 mM (inactive)
105 | Cc1cc(C(=O)NCc2ccco2)cs1 | > 4 mM (inactive)
106 | CC(=O)Oc1ccc(-c2nc(-c3cccnc3)no2)cc1 | > 4 mM (inactive)
107 | Cc1cc(NC(=O)CS(=O)(=O)c2ccccc2)no1 | > 4 mM (inactive)
108 | Cc1cc(-c2ccc(Cl)cc2)n2nc(N)nc2n1 | > 4 mM (inactive)
109 | Oc1cccc(N2CCOCC2)c1 | > 4 mM (inactive)
110 | CC1CCCN(C/C(O)=C(\C#N)c2nc3ccccc3[nH]2)C1 (stereo not given) | > 4 mM (inactive)
111 | c1cc(CNc2ccc3c(c2)OCCO3)ccn1 | > 4 mM (inactive)
112 | Cc1cccc(CO)n1 | > 4 mM (inactive)
113 | Cc1ccc(CCNc2ccccc2)c[n+]1[O-] | > 4 mM (inactive)
114 | Cc1occc1C(=O)Nc1ccc(C(N)=O)cc1 | > 4 mM (inactive)
115 | COC(=O)C(O)[C@@H]1C2(C)C(=O)[C@@H](CC3=C4CC(=O)O[C@@H](c5ccoc5)[C@]4(C)CCC32)[C@H](OC(C)=O)C1(C)C (stereo not given in full) | > 4 mM (inactive)
